Here are results for 101 molecules from the OPERA property sets (Mansouri et al. 2018).

Values after ≈ are worked out from the molar mass of the structure shown.

By solubility is commonly meant how much of the substance goes into solution per volume. A lower solubility goes with little dissolved substance.

Conditions in the first series: not given
In turn, `COc1ccc(OC)c([N+](=O)[O-])c1` showed a solubility of 0.764 mM (≈ 140 µg/mL).

In the case of `Nc1ccc(CC(=O)c2ccccc2)cc1`, the solubility was 15.7 mM (≈ 3310 µg/mL).

Molecule `O=S(=O)(O)c1ccc(/N=N/c2c(O)ccc3ccccc23)c2ccccc12` registered a solubility of 68.7 mM (≈ 26000 µg/mL).

In turn, `CC(S(C)(=O)=O)S(C)(=O)=O` yielded a solubility of 38.1 mM (≈ 7100 µg/mL).

In turn, `O=P(O)(O)c1cccc2ccccc12` gave a solubility of 24 mM (≈ 5000 µg/mL).

On to `CCCOCC(O)COCCC`, for which the solubility was determined as 454 mM (≈ 80000 µg/mL).

Consider `CC1(C)CC(C(=O)O)C(C)(C)N1` (stereo unspecified), for which the solubility turned out to be 2920 mM (≈ 500000 µg/mL).

The molecule `O=S(=O)(O)c1ncc[nH]1` returned a solubility of 844 mM (≈ 125000 µg/mL).

Turning to `CCOC(CC(C)O)OCC` (stereo unspecified), the solubility was 1230 mM (≈ 200000 µg/mL).

Take `CCC(CC)C(=O)N(CC)CC`: the solubility was 81.7 mM (≈ 14000 µg/mL).

For `O=C(O)CC1(CC(=O)O)OCOC1=O`, the solubility is 245 mM (≈ 50000 µg/mL).

Take `CCCCOCCOCCOC(N)=O`: the solubility was 487 mM (≈ 100000 µg/mL).

In the case of `C[Si](C)(C)CN`, the solubility was 17.3 mM (≈ 1790 µg/mL).

Molecule `CCCSS(=O)CCC` (stereo unspecified) had a solubility of 120 mM (≈ 20000 µg/mL).

Molecule `CCC(Br)(Br)C(=O)O` registered a solubility of 134 mM (≈ 33000 µg/mL).

Regarding `CCCC(=O)OCCOCCOCCOC(=O)CCC`, the solubility amounted to 27.6 mM (≈ 8000 µg/mL).

Molecule `CC(C)CCOCC(O)COCCC(C)C` came in with a solubility of 43 mM (≈ 10000 µg/mL).

`CCOC(=O)[C@H](C)NC(=O)CCl` registered a solubility of 345 mM (≈ 66700 µg/mL).

`CCSS(=O)CC` (stereo unspecified) returned a solubility of 796 mM (≈ 110000 µg/mL).

Turning to `Cn1c(=O)ncc2[nH]c(=O)[nH]c21`, the solubility was found to be 161 mM (≈ 26700 µg/mL).

For the molecule `NCCCNc1ccccc1`, the solubility is 22.2 mM (≈ 3330 µg/mL).

Consider `CCN(CC)CCSCCN(CC)CC`, for which the solubility stood at 4.3 mM (≈ 1000 µg/mL).

The same series, now with this note: 20 °C.
Molecule `O=C(O)CCCCCCCCCCO` displayed a solubility of 1.98 mM (≈ 400 µg/mL).

Consider `COc1ccccc1C(N)=O`, for which the solubility came out at 16.5 mM (≈ 2500 µg/mL).

In turn, `CCCc1nnc(NS(=O)(=O)c2ccc(N)cc2)s1` had a solubility of 0.493 mM (≈ 147 µg/mL).

`C=CCC1(CC)C(=O)NC(=O)NC1=O` registered a solubility of 20.5 mM (≈ 4020 µg/mL).

For the molecule `Cc1nc2cncnc2n(C)c1=O`, the solubility turned out to be 32.4 mM (≈ 5710 µg/mL).

In the case of `O=S(=O)(c1ccccc1)N1CCCCC1`, the solubility came to 2.91 mM (≈ 655 µg/mL).

For the molecule `OCc1ccc(Br)cc1`, the solubility stood at 11.8 mM (≈ 2200 µg/mL).

For `OCc1ccc(Cl)cc1Cl`, the solubility was 5.65 mM (≈ 1000 µg/mL).

In turn, `O=C(O)CNC(=O)CNS(=O)(=O)c1ccc2ccccc2c1` showed a solubility of 2.02 mM (≈ 650 µg/mL).

`CC1(c2ccccc2)C(=O)NC(=O)NC1=O` had a solubility of 3.48 mM (≈ 760 µg/mL).

Take `N#Cc1ccc(C(=O)O)cc1`: the solubility was 8.16 mM (≈ 1200 µg/mL).

Turning to `O=c1ncc2[nH]cnc2[nH]1`, the solubility was 19.3 mM (≈ 2630 µg/mL).

In turn, `CC(=O)Nc1ccc(/C=N/NC(N)=S)cc1` showed a solubility of 0.372 mM (≈ 88 µg/mL).

On to `O=CC(=O)Cc1ccccc1`, for which the solubility was found to be 6.75 mM (≈ 1000 µg/mL).

`CCc1nc2ncnc(O)c2nc1CC` registered a solubility of 12.2 mM (≈ 2500 µg/mL).

As for `CN1c2ccccc2Sc2ccccc21`, the solubility amounted to 0.00255 mM (≈ 0.544 µg/mL).

With `N[C@@H](C(=O)O)[C@@H](O)[C@H](O)[C@H](O)CO`, the solubility amounted to 138 mM (≈ 27000 µg/mL).

Molecule `NC1=NC(C(=O)O)CCS1` (stereo unspecified) showed a solubility of 187 mM (≈ 30000 µg/mL).

In turn, `NC(=O)C(N)C(O)C(=O)O` (stereo unspecified) gave a solubility of 70.9 mM (≈ 10500 µg/mL).

Regarding `CC(=O)CC1=NCCS1`, the solubility is 69.8 mM (≈ 10000 µg/mL).

On to `CC(C)(C(=O)O)C(C)(CC(=O)O)C(=O)O` (stereo unspecified), for which the solubility turned out to be 774 mM (≈ 169000 µg/mL).

The molecule `CCCCCS` gave a solubility of 1.5 mM (≈ 156 µg/mL).

Regarding `C=CCCN=C=S`, the solubility came to 4.06 mM (≈ 460 µg/mL).

In turn, `CC(C)(C)S(=O)(=O)C(C)(C)C` showed a solubility of 60.6 mM (≈ 10800 µg/mL).

Consider `NN=c1nc[nH]c2nccnc12`, for which the solubility was 13.7 mM (≈ 2220 µg/mL).

As to `O=C1CC(c2ccccc2)CC(=O)C1[N+](=O)[O-]` (stereo unspecified), the solubility was 21.4 mM (≈ 5000 µg/mL).

On to `c1ncc2n[nH]nc2n1`, for which the solubility was 586 mM (≈ 71000 µg/mL).

Turning to `CC(C#N)(CCC(=O)O)/N=N/C(C)(C#N)CCC(=O)O` (stereo unspecified), the solubility was found to be 9.81 mM (≈ 2750 µg/mL).

Consider `COc1ccc2c(c1)Sc1ccc(Cl)cc1N2`, for which the solubility was found to be 0.0105 mM (≈ 2.77 µg/mL).

In turn, `Cc1snnc1C(=O)O` had a solubility of 347 mM (≈ 50000 µg/mL).

On to `NC(N)=N/C(N)=N/c1cccc2ccccc12`, for which the solubility was determined as 4.84 mM (≈ 1100 µg/mL).

`O=Cc1ccc(Br)o1`: the solubility amounted to 28.6 mM (≈ 5000 µg/mL).

In the case of `S=C=NCCc1ccccc1`, the solubility is 0.674 mM (≈ 110 µg/mL).

Staying with this series, now noted: 22 °C.
`CC(=O)OCCS`: the solubility was 31.6 mM (≈ 3800 µg/mL).

Still in this series, the particulars now being: 23 °C.
On to `Nc1cc([N+](=O)[O-])ccc1O`, for which the solubility is 6 mM (≈ 925 µg/mL).

Take `NC(=O)N/N=C/[C@H](O)[C@@H](O)[C@@H](O)[C@H](O)CO`: the solubility is 222 mM (≈ 52700 µg/mL).

Molecule `N#CCC(=O)Nc1ccccc1` gave a solubility of 1.87 mM (≈ 300 µg/mL).

The series is the same for the next values; noted with them: 25 °C.
For the molecule `CCCCCCOC(=O)CCOCC`, the solubility is 1.48 mM (≈ 300 µg/mL).

In turn, `CCCC(C)CC(C)O` (stereo unspecified) yielded a solubility of 13.2 mM (≈ 1730 µg/mL).

Regarding `CC(=O)Nc1ccc2c(c1)C(=O)OC2`, the solubility was 2.51 mM (≈ 480 µg/mL).

Molecule `Sc1nc2ccccc2o1` came in with a solubility of 6.61 mM (≈ 1000 µg/mL).

Molecule `CC(=O)CC(=O)c1ccccc1` registered a solubility of 2.36 mM (≈ 383 µg/mL).

The molecule `CCCC[C@H](O)C(C)C` returned a solubility of 15.4 mM (≈ 2010 µg/mL).

Regarding `O=C(O)c1cccc(C(=O)O)c1[N+](=O)[O-]`, the solubility is 10.2 mM (≈ 2160 µg/mL).

In turn, `CCC1OC(=O)c2ccccc21` (stereo unspecified) returned a solubility of 17.9 mM (≈ 2900 µg/mL).

In turn, `ON=C1CCCCCCCCC1=NO` registered a solubility of 2.62 mM (≈ 520 µg/mL).

As for `CC(=O)CC(CC(=O)O)c1ccccc1` (stereo unspecified), the solubility stood at 35.8 mM (≈ 7380 µg/mL).

Take `COS(=O)(=O)c1ccccc1`: the solubility was found to be 18.1 mM (≈ 3120 µg/mL).

For `CCCCC(C)C(C)O` (stereo unspecified), the solubility came to 8.75 mM (≈ 1140 µg/mL).

As to `NC(=O)NCCC(=O)O`, the solubility turned out to be 158 mM (≈ 20900 µg/mL).

Turning to `CCC1(CC)OC(=O)c2ccccc21`, the solubility was found to be 1.37 mM (≈ 260 µg/mL).

As to `CC(NCCC#N)C(=O)O` (stereo unspecified), the solubility was 985 mM (≈ 140000 µg/mL).

Molecule `CCCCOC(=O)C(C)OC(C)=O` (stereo unspecified) displayed a solubility of 176 mM (≈ 33200 µg/mL).

In the case of `Cc1cc(C)nc(N)n1`, the solubility came out at 325 mM (≈ 40000 µg/mL).

Turning to `CCCCCCCCOCCO`, the solubility worked out at 7.5 mM (≈ 1310 µg/mL).

Molecule `CC(CCC(=O)O)NC(=O)c1ccccc1` (stereo unspecified) came in with a solubility of 20.3 mM (≈ 4500 µg/mL).

Take `CCCCC(O)CN(N=Cc1ccc([N+](=O)[O-])o1)C(N)=O` (stereo unspecified): the solubility worked out at 0.268 mM (≈ 80 µg/mL).

`CCCC(=O)NCCNC(=O)CCC` showed a solubility of 239 mM (≈ 47800 µg/mL).

In the case of `Cc1c(Cl)c(O)c(Cl)c(Cl)c1Cl`, the solubility is 0.025 mM (≈ 6.15 µg/mL).

`CCCCCCCCOCC(O)CO` (stereo unspecified) gave a solubility of 12 mM (≈ 2450 µg/mL).

The molecule `CC(N)C(O)C(=O)O` (stereo unspecified) gave a solubility of 443 mM (≈ 52800 µg/mL).

For `CC(C)[C@@H](Br)C(=O)O`, the solubility is 78.9 mM (≈ 14300 µg/mL).

`CC(=O)Oc1ccccc1/C=C/C(=O)O` came in with a solubility of 0.698 mM (≈ 144 µg/mL).

Molecule `C#CC#CC=C=CCCO` yielded a solubility of 12.9 mM (≈ 1700 µg/mL).

For `Cc1cc(C)c(C)cn1`, the solubility was 165 mM (≈ 20000 µg/mL).

For the molecule `CCOC(=S)SC(CC(=O)O)C(=O)O` (stereo unspecified), the solubility stood at 101 mM (≈ 24100 µg/mL).

In turn, `COP(=S)(OC)SSP(=S)(OC)OC` registered a solubility of 0.04 mM (≈ 12.6 µg/mL).

As to `O=C(O)CCC(=O)c1cccc2ccccc12`, the solubility was 0.329 mM (≈ 75 µg/mL).

On to `O=C(O)CC1NC(=O)NC1=O` (stereo unspecified), for which the solubility stood at 70.5 mM (≈ 11100 µg/mL).

Still in this series, the particulars now being: 26 °C.
As for `CC(C(=O)O)C(C)(C)CCC(=O)O` (stereo unspecified), the solubility came out at 29.8 mM (≈ 5600 µg/mL).

For `CSCCC(C(=O)O)N(CCC#N)CCC#N` (racemic), the solubility amounted to 47 mM (≈ 12000 µg/mL).

`Cc1ccc(C)c(C)n1` showed a solubility of 257 mM (≈ 31200 µg/mL).

The series is the same for the next values; noted with them: 28 °C.
In turn, `CC(NC(N)=O)NC(N)=O` showed a solubility of 256 mM (≈ 37400 µg/mL).

The same series, now with this note: 30 °C.
In the case of `CCCCCOC(=O)c1ccc(O)cc1`, the solubility turned out to be 0.154 mM (≈ 32 µg/mL).

`CN(C)C(=O)c1cccc(C(=O)N(C)C)c1`: the solubility worked out at 3070 mM (≈ 676000 µg/mL).

As to `CCCOc1ccc(NC(C)=O)cc1`, the solubility turned out to be 0.88 mM (≈ 170 µg/mL).

As for `CCN(CC)C(C#N)c1ccccc1` (stereo unspecified), the solubility is 106 mM (≈ 20000 µg/mL).

Take `CCOC(=O)c1ccc(O)c(Cl)c1`: the solubility turned out to be 0.598 mM (≈ 120 µg/mL).

Molecule `CCc1cccc(C)n1` returned a solubility of 150 mM (≈ 18200 µg/mL).
